Ends that are not written are not given here.

In series [1] the test system is Clinical A. baumannii 3 (minocycline resistance). Description: Disk diffusion plate assay, inhibition zone. The settings on record: Multidrug-resistant A. baumannii strain 3; MH paper + 10 µL normal saline; Fig 3B. It counts as cell-based, Acinetobacter baumannii. How it is done:
(§1) The antimicrobial activity of FP-CATH9 was determined through broth microdilution and plate assays in an antibiotic disk diffusion test.
(§2) The MIC of FP-CATH9 was determined using broth microdilution as recommended by Clinical and Laboratory Standards Institute (CLSI). Sensitivity to other antibiotics was assessed using the VITEK 2 Compact System (bioMerieux, France). Antimicrobial activity was determined using the Clinical and Laboratory Standards Institute (CLSI) Standard Reference method([17]).
(§3) The concentration of the FP-CATH9 mother solution was 2 mg/mL. The control conditions included MH paper + normal saline (10 µL) , experimental conditions included MH paper + FP-CATH9 (10 µL). Total 10 µL was added to MH paper to detect the dose dependence of sensitization.

Series [2] relates to Multidrug-resistant K. pneumoniae. Briefly: Checkerboard assay, FP-CATH9 and minocycline. Particulars: 18 h.
Series [3] has as its system minocycline-resistant K. pneumoniae strain 3. Description: G. mellonella infection assay. It counts as in vivo, Galleria mellonella. Particulars: G. mellonella larvae, n = 10, infected with K. pneumoniae strain 3; 16 µg/mL; 7 days. How it is done:
The G. mellonella model of bacterial infection was used to evaluate the combined protective effect of FP-CATH9 and minocycline. In each G. mellonella group (n = 10), G. mellonella survival was recorded every 24 h after infection. […] After the infected group was injectioned with minocycline -resistant K. pneumoniae strain 3 , the larvae all died within 1 day.
Refer to the method of a reference ([22]). Monoclonal K. pneumoniae strain 3 was selected and cultivated in 5 mL LB broth using a constant temperature oscillator at 200 rpm/min and 37°C for 12 h. After 12 h, the culture was expanded and diluted at the ratio of 1:100. The logarithmic bacterial solution was taken, washed with normal saline, and then suspended in 1 mL system with a concentration of 1.5 × 10^8 CFU/mL. The experiment was divided into 5 groups: the minocycline-resistant K. pneumoniae strain 3 group (treated group), the group injected with FP-CATH9 (16 µg/mL) alone, the group with minocycline (16 µg/mL) alone, the group with FP-CATH9 (16 µg/mL) + minocycline (16 µg/mL), and the NS group (saline group). […]

Series [4] has as its system Multidrug-resistant K. pneumoniae strain 3. Briefly: Time-killing curve. It counts as cell-based, Klebsiella pneumoniae. The settings on record: K. pneumoniae strain 3, 10^6 CFU/mL, 37°C, each agent 16 µg/mL. Here is the method: After 4 h of treatment with minocycline only (16 µg/mL), drug-resistant bacterial cultures were again observed to be growing rapidly.
Refer to the method of a reference ([19]). The above clinical K. pneumoniae strain 3 was taken in logarithmic stage (oscillatory culture at 37°C) and diluted with fresh MH liquid medium into 10^6 CFU/mL bacterial suspension. […] The bacterial solution added with the drug was placed in an incubator at 37°C for shock culture, and the 50 µL bacterial solution was diluted 1,000 times at 0, 2, 4, 6, 8, 10, and 12 h, respectively. Then, the 50 µL diluted bacteria solution was coated on MH solid medium, and the bacterial colonies were counted after overnight culture at 37°C. Saline was used as a negative control.

In series [5] the test system is P. aeruginosa ATCC 27853. Description: Disk diffusion plate assay, inhibition zone. The settings on record: MH paper + 10 µL normal saline, Fig 3A. It counts as cell-based, Pseudomonas aeruginosa. How it is done:
as §1, §2, §3

For series [6], the system named is Clinical K. pneumoniae 3 (minocycline resistance). Briefly: Disk diffusion plate assay, inhibition zone (peptide alone and antibiotic sensitization). The settings on record: for Inhibition zone (mm) Contains FP-CATH9 / Inhibition zone (mm) Normal saline control: K. pneumoniae strain 3, mean ± SD, repeated three times; for Inhibition zone (mm) Contains FP-CATH9: antibiotic disk + FP-CATH9 (20 µg peptide in 10 µL); for Inhibition zone (mm) Normal saline control: antibiotic disk + normal saline, without FP-CATH9.

Series [7] concerns K. pneumoniae ATCC 700603. It counts as cell-based, Klebsiella pneumoniae. The settings on record: peptide alone, repeated three times.
The next series concerns S. aureus ATCC 29213. Briefly: MIC, broth microdilution (CLSI). The settings on record: peptide alone, repeated three times. It counts as cell-based.
The subject of series [8] is Clinical K. pneumoniae 1 (minocycline sensitive). Briefly: MIC, broth microdilution (CLSI). It counts as cell-based, Klebsiella pneumoniae. The settings on record: peptide alone, repeated three times.
Series [9] has as its system Clinical A. baumannii 2 (minocycline mediated). It counts as cell-based, Acinetobacter baumannii. The settings on record: peptide alone, repeated three times.
Series [10] deals with P. aeruginosa ATCC 27853. Briefly: MIC, broth microdilution (CLSI). It counts as cell-based, Pseudomonas aeruginosa. Particulars: peptide alone, repeated three times.
For the next series, the system named is bovine erythrocytes. Briefly: Hemolytic activity. It counts as cell-based. The settings on record: 5% bovine erythrocyte suspension, 128 µg/mL, 37°C, 1 h, absorbance 540 nm; 0.2% Triton X-100 positive control; mean ± SD. Here is the method:
Refer to the method of a reference ([21]). Determination of hemolytic activity. Fresh bovine blood cells (Guangzhou Hongquan Biotechnology Co., Ltd., No: HQ80074) were washed with normal saline three times and configured into 5% erythrocyte suspension. […] The supernatant was absorbed, and the absorption value was measured at a 540 nm wavelength. Normal saline was used as negative control, and 0.2% Triton X-100 was used as positive control. The percentage of hemolysis rate is calculated by the following formula: hemolysis rate % = A(sample) − A(negative control) / A(positive control) × 100%.

The subject of the next series is E. coli ATCC BW25113. Description: MIC, broth microdilution (CLSI). Particulars: peptide alone, repeated three times. It counts as cell-based, Escherichia coli.
The test system of series [11] is Clinical A. baumannii 1 (minocycline sensitive). Description: MIC, broth microdilution (CLSI). It counts as cell-based, Acinetobacter baumannii. The settings on record: peptide alone, repeated three times.
Series [12] deals with Clinical K. pneumoniae 2 (minocycline mediated). It counts as cell-based, Klebsiella pneumoniae. Particulars: peptide alone, repeated three times.
For another series, the system named is A. baumannii ATCC 19606. Description: MIC, broth microdilution (CLSI). It counts as cell-based, Acinetobacter baumannii. The settings on record: peptide alone, repeated three times.
In series [13] the test system is Clinical A. baumannii 3 (minocycline resistance). Particulars: peptide alone, repeated three times. How it is done:
as §1, §2

Series [14] concerns Clinical P. aeruginosa 1 (minocycline resistance). The settings on record: peptide alone, repeated three times. How it is done: as §1, §2
For series [15], the system named is Clinical P. aeruginosa 3 (minocycline resistance). The settings on record: peptide alone, repeated three times. How it is done: as §1, §2
Series [16] relates to Clinical P. aeruginosa 2 (minocycline resistance). The settings on record: peptide alone, repeated three times. How it is done:
as §1, §2

Series [17] deals with Clinical K. pneumoniae 3 (minocycline resistance). The settings on record: peptide alone, repeated three times. Here is the method: as §1, §2

Take `CN(C)c1ccc(O)c2c1C[C@H]1C[C@H]3[C@H](N(C)C)C(O)=C(C(N)=O)C(=O)[C@@]3(O)C(O)=C1C2=O` [minocycline]: the “Inhibition zone, control” value is 11 mm in series [1]; 6 mm in the series with P. aeruginosa ATCC 27853 [5]; 6 mm in [6] (Multidrug-resistant K. pneumoniae strain 3, MH paper + 10 µL normal saline, Fig 3C). Further, the MIC in [2] (Klebsiella pneumoniae, read-out: MIC of minocycline alone) was determined as 128 µg/mL. Further, the “MIC of minocycline combined with FP-CATH9” value in series [2] (multidrug-resistant K. pneumoniae, 5 × 10^5 CFU/mL, 37°C) was determined as 2 µg/mL. Further, in [3], the protective effect entry was “little protective effect”. In series [4], the “effect on bacterial growth at 10 h (time-killing curve)” value was “no inhibitory effect”.
As to `NCC[C@H](O)C(=O)N[C@@H]1C[C@H](N)[C@@H](O[C@H]2O[C@H](CN)[C@@H](O)[C@H](O)[C@H]2O)[C@H](O)[C@H]1O[C@H]1O[C@H](CO)[C@@H](O)[C@H](N)[C@H]1O` [AK, amikacin], in [6], the “Inhibition zone (mm) Contains FP-CATH9” value is given as 6 mm and the “Inhibition zone (mm) Normal saline control” value is reported as 6 mm.
For `Cc1cc(NS(=O)(=O)c2ccc(N)cc2)no1` [SXT, sulfamethoxazole], in series [6], the “Inhibition zone (mm) Contains FP-CATH9” value was 10.13 ± 0.12 mm and the “Inhibition zone (mm) Normal saline control” value was 10.23 ± 0.17 mm.
For `CC1(C)S[C@@H]2[C@H](NC(=O)[C@H](N)c3ccccc3)C(=O)N2[C@H]1C(=O)O` [AMP, ampicillin] the same measures were 6 mm and 6 mm.
Consider KRFKKFWKK [FP-CATH9], for which the “FP-CATH9 MIC” value (in [7]; in the series with S. aureus ATCC 29213; in series [8]; in series [9]; in the series on P. aeruginosa ATCC 27853 [10]; in the series with E. coli ATCC BW25113) was over 512 µg/mL each time. Moreover, the “FP-CATH9 MIC” value (in series [11]; in [12]; in the series with A. baumannii ATCC 19606; in series [13]; in [14]; in [15]) was over 512 µg/mL in each case. The “FP-CATH9 MIC” value in series [16] and in series [17] was over 512 µg/mL each time. The hemolysis in the series with bovine erythrocytes was 3.97% ± 0.42%.
Turning to `C[C@@H](O)[C@H]1C(=O)N2C(C(=O)O)=C(SCCN=CN)C[C@H]12` [IPM, imipenem], in [6], the “Inhibition zone (mm) Contains FP-CATH9” value was found to be 9.03 ± 0.05 mm and the “Inhibition zone (mm) Normal saline control” value is listed as 9.06 ± 0.04 mm.
The like results for `CC(C)(O/N=C(\C(=O)N[C@@H]1C(=O)N2C(C(=O)[O-])=C(C[n+]3ccccc3)CS[C@H]12)c1csc(N)n1)C(=O)O` [CAZ, ceftazidime] were, in that order, 6 mm and 6 mm.
For `C[C@@H](O)[C@H]1C(=O)N2C(C(=O)O)=C(S[C@@H]3CN[C@H](C(=O)N(C)C)C3)[C@H](C)[C@H]12` [MEM, meropenem] the same measures were 8.1 ± 0.08 mm and 8.16 ± 0.12 mm.
Regarding `CO/N=C(\C(=O)N[C@@H]1C(=O)N2C(C(=O)O)=C(CSc3nc(=O)c(=O)[nH]n3C)CS[C@H]12)c1csc(N)n1` [CRO, ceftriaxone], in series [6], the “Inhibition zone (mm) Contains FP-CATH9” value worked out at 6 mm and the “Inhibition zone (mm) Normal saline control” value came out at 6 mm.
For the compound `CNC(C)C1CCC(N)C(OC2C(N)CC(N)C(OC3OCC(C)(O)C(NC)C3O)C2O)O1` (centres unmarked) [GN, gentamicin], in series [6], the “Inhibition zone (mm) Contains FP-CATH9” value is recorded as 6 mm and the “Inhibition zone (mm) Normal saline control” value was determined as 6 mm.

These data come from article PMC11960431, “A novel function of short cationic peptide FP-CATH9 without antimicrobial activity reverses resistance to minocycline in common multidrug-resistant gram-negative bacteria” (Microbiology Spectrum, 2025).
